Laboratory results as given in patent publication US20190367516A1 (Bayer Pharma Aktiengesellschaft, priority 2015, published 2019).
Read-outs that look alike come from different tables or passages of the source.

Legend:
anaesthetized rats = assay: Effects on the heart rate in anaesthetized rats (B-9); format: in vivo, rat; details: i.v. infusion via jugular vein over 5 min, dose not given, in some cases means of several determinations
Description: B-9. Effects of the Test Substances on the Heart Rate in Anaesthetized Rats
Male rats of the strain (WI) WU Br from the breeder Charles River are anaesthetized initially with a 4-5% isoflurane inhalation for approx. 3 min. Subsequently, anaesthesia is maintained using a 1.5% isoflurane inhalation. For this purpose, the anaesthetized animals are fixed on a heated operating plate. By means of visual inspection and between toe reflex, the depth of anaesthesia is checked.
For the application of the test substance, an i.v. route into the jugular vein is used. A caudal to cranial skin incision is then made longitudinally and both the cervical musculature and the salivary glands are severed. The right common carotid artery is exposed and blood supply is arrested both proximally and distally. Using microinstrumentation, a TIP catheter (1.2 F) is introduced into the vessel in order to measure the arterial pressure and the heart rate.
Initially, both parameters are monitored for 10 min in the basal state without substance addition. The substances to be investigated are dissolved in suitable solvent mixtures and subsequently administered at various dosages to a group of animals in each case via the jugular vein by an infusion pump over 5 min. A solvent-treated group is used as control under the same experimental conditions. The arterial blood pressure and heart rate with substance addition is determined for 20 min. The data are registered with the PowerLab system (AD instruments) and evaluated using the LabChart program (AD instruments).
The values determined in this manner for the percentage decrease in heart rate for individual working examples are given in Table 4 below (in some cases as means of a plurality of independent individual determinations): […]

human M2 receptor [1] = molecular target: T1, human M2 receptor (Homo sapiens, UniProt P08172); details: for Efficiency: boosting of the acetylcholine effect at EC20 acetylcholine concentration
T1 sequence (P08172 1-466): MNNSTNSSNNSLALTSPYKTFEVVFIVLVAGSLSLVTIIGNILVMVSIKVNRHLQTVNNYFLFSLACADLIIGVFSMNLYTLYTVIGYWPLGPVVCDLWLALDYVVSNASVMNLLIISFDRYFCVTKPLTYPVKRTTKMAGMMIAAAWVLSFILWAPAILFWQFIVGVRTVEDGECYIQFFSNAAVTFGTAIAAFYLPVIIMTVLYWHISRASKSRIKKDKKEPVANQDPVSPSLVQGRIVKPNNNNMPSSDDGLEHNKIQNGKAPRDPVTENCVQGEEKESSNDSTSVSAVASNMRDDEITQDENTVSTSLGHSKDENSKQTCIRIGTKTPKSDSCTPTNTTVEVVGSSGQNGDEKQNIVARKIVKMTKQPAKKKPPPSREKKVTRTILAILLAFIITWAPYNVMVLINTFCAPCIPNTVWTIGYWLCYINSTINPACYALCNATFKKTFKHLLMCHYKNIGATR

human M2 receptor [2] = molecular target: T1, human M2 receptor; format: cell-based; details: α >1 = positive cooperativity
[3] = Receptor activity EC50, allosteric potency at EC20 acetylcholine, M2-GIRK1/4 reporter cells, in some cases mean of two or more determinations
[4] = shift of acetylcholine dose-response curve (Allosteric EC50 shift)
[5] = Receptor activity EC50, M2-GIRK1/4 activation test, acetylcholine at EC20, allosteric potency, in some cases mean values from two or more determinations
[6] = shift in the acetylcholine dose-response curve (Allosteric EC50 shift, GraphPad PRISM)
[7] = read-out: Efficiency, boosting of the acetylcholine effect at EC20 acetylcholine concentration, M2-GIRK1/4 reporter cells

Row | Compound | EC50 (human M2 receptor [1]; [3]) [nM] | Efficiency (human M2 receptor [1]; M2-GIRK1/4 reporter cells) [%] | Cooperativity (alpha factor) (human M2 receptor [2]; [4]) | EC50 (human M2 receptor [1]; [5]) [nM] | Cooperativity (alpha factor) (human M2 receptor [2]; [6]) | Emax (human M2 receptor [1]; [7]) [%] | Reduction in heart rate (%) (anaesthetized rats) | Emax (human M2 receptor [1]; read-out: Efficiency) [%]
1 | CC(NC(=O)c1cn(-c2c(F)cc(F)cc2F)c2nc(N3CCNC3=O)ccc2c1=O)C(F)(F)C(F)(F)F (racemic) [Example 541, 4-Oxo-7-(2-oxoimidazolidin-1-yl)-N-[3,3,4,4,4-pentafluorobutan-2-yl]-1-(2,4,6-trifluorophenyl)-1,4-dihydro-1,8-naphthyridine-3-carboxamide] | 7 | 92.2 | 31 | – | – | – | 14 | –
2 | O=C(NC(c1ccccc1Cl)C(F)(F)F)c1cn(-c2ccc(F)cc2F)c2nc(N3C[C@@H](O)CC3=O)ccc2c1=O (single isomer, unassigned) [Example 212] | – | – | – | 41 | 54 | – | 11 | –
3 | O=C(NC(c1ccccc1Cl)C(F)(F)F)c1cn(-c2ccc(F)cc2F)c2nc(N3C[C@@H](O)CC3=O)ccc2c1=O (single isomer, unassigned) [Example 213] | – | – | – | 19 | 55 | – | 14 | –
4 | O=C(N[C@@H](C1CC1)C(F)(F)F)c1cn(-c2ccc(F)cc2F)c2nc(N3C[C@@H](O)CC3=O)ccc2c1=O (single isomer, unassigned) [Example 284] | – | – | – | 61 | – | – | 11 | –
5 | O=C(N[C@H](C1CC1)C(F)(F)F)c1cn(-c2c(F)cccc2F)c2nc(N3C[C@@H](O)CC3=O)ccc2c1=O (single isomer, unassigned) [Example 296] | – | – | – | 28 | 49 | – | 11 | –
6 | O=C(N[C@@H](C1CC1)C(F)(F)F)c1cn(-c2c(F)cccc2F)c2nc(N3C[C@@H](O)CC3=O)ccc2c1=O (single isomer, unassigned) [Example 297] | – | – | – | 37 | 47 | – | 10 | –
7 | CC[C@H](NC(=O)c1cn(-c2c(F)cc(F)cc2Cl)c2nc(N3C[C@@H](O)CC3=O)ccc2c1=O)C(F)(F)F (single isomer, unassigned) [Example 400] | 5 | 100.0 | 32 | – | – | – | 11 | –
8 | CCC(NC(=O)c1cn(-c2c(F)cc(F)cc2F)c2nc(N3C[C@@H](O)CC3=O)ccc2c1=O)C(F)(F)C(F)(F)F (single isomer, unassigned) [Example 520] | 2 | – | 36 | – | – | 100 | 15 | –
9 | CCC(NC(=O)c1cn(-c2c(F)cc(F)cc2F)c2nc(N3C[C@@H](O)[C@H](O)C3)ccc2c1=O)C(F)(F)C(F)(F)F (single isomer, unassigned) [Example 523] | – | – | 41 | – | – | – | 15 | 100
10 | CC[C@H](NC(=O)c1cn(-c2ccc(F)cc2F)c2nc(N3C[C@@H](O)CC3=O)ccc2c1=O)C(F)(F)F [Example 174, 1-(2,4-Difluorophenyl)-7-[(4S)-4-hydroxy-2-oxopyrrolidin-yl]-4-oxo-N-[(2S)-1,1,1-trifluorobutan-2-yl]-1,4-dihydro-1,8-naphthyridine-3-carboxamide] | – | – | – | 113 | – | – | 7 | 98.6
11 | COC(=O)N1CCN(c2ccc3c(=O)c(C(=O)Nc4c(Cl)cccc4Cl)cn(-c4c(F)cc(F)cc4F)c3n2)CC1 [Example 593, Methyl 4-{6-[(2,6-dichlorophenyl)carbamoyl]-5-oxo-8-(2,4,6-trifluorophenyl)-5,8-dihydro-1,8-naphthyridin-2-yl}piperazine-1-carboxylate] | 17 | – | 29 | – | – | 89.5 | – | –
12 | CC[C@H](NC(=O)c1cn(-c2c(F)cc(F)cc2F)c2nc(N3CCN(C(=O)OC)CC3)ccc2c1=O)C(F)(F)F [Example 595, Methyl 4-[5-oxo-6-{[(2S)-1,1,1-trifluorobutan-2-yl]carbamoyl}-8-(2,4,6-trifluorophenyl)-5,8-dihydro-1,8-naphthyridin-2-yl]piperazine-1-carboxylate] | 19 | – | 36 | – | – | 94 | – | –
13 | O=C(NC1(C(F)(F)F)CCC1)c1cn(-c2c(F)cc(F)cc2F)c2nc(N3CCNC3=O)ccc2c1=O [Example 596, 4-Oxo-7-(2-oxoimidazolidin-1-yl)-N-[1-(trifluoromethyl)cyclobutyl]-1-(2,4,6-trifluorophenyl)-1,4-dihydro-1,8-naphthyridine-3-carboxamide] | 21 | – | 19 | – | – | 98.5 | – | –
14 | CC[C@@H](NC(=O)c1cn(-c2c(F)cccc2F)c2nc(N3C[C@@H](O)[C@H](O)C3)ccc2c1=O)C(F)(F)F [Example 618, 1-(2,6-Difluorophenyl)-7-[(3R,4R)-3,4-dihydroxypyrrolidin-1-yl]-4-oxo-N-[(2R)-1,1,1-trifluorobutan-2-yl]-1,4-dihydro-1,8-naphthyridine-3-carboxamide] | 39 | – | 30 | – | – | 99 | – | –

Continued, in another order:

Row | EC50 (human M2 receptor [1]; [3]) [nM] | Efficiency (human M2 receptor [1]; M2-GIRK1/4 reporter cells) [%] | Cooperativity (alpha factor) (human M2 receptor [2]; [4]) | EC50 (human M2 receptor [1]; [5]) [nM] | Cooperativity (alpha factor) (human M2 receptor [2]; [6]) | Emax (human M2 receptor [1]; [7]) [%] | Compound | Reduction in heart rate (%) (anaesthetized rats) | Emax (human M2 receptor [1]; read-out: Efficiency) [%]
15 | 49 | – | 23 | – | – | 86 | O=C(Nc1c(Cl)cccc1Cl)c1cn(-c2ccc(F)cc2F)c2nc(N3C[C@@H](O)[C@H](O)C3)ccc2c1=O [Example 631, N-(2,6-Dichlorophenyl)-1-(2,4-difluorophenyl)-7-[(3R,4R)-3,4-dihydroxypyrrolidin-1-yl]-4-oxo-1,4-dihydro-1,8-naphthyridine-3-carboxamide] | – | –
16 | 54 | – | 48 | – | – | 100 | CC(C)(NC(=O)c1cn(-c2c(F)cc(F)cc2F)c2nc(N3C[C@@H](O)[C@H](O)C3)ccc2c1=O)C(F)F [Example 634, N-(1,1-Difluoro-2-methylpropan-2-yl)-7-[(3R,4R)-3,4-dihydroxypyrrolidin-1-yl]-4-oxo-1-(2,4,6-trifluorophenyl)-1,4-dihydro-1,8-naphthyridine-3-carboxamide] | – | –
17 | 68 | – | 25 | – | – | 96.5 | CC[C@@H](NC(=O)c1cn(-c2ccc(F)cc2F)c2nc(N3C[C@@H](O)[C@@H](O)C3)ccc2c1=O)C(F)(F)F [Example 639, 1-(2,4-Difluorophenyl)-7-[(3R,4S)-3,4-dihydroxypyrrolidin-1-yl]-4-oxo-N-[(2R)-1,1,1-trifluorobutan-2-yl]-1,4-dihydro-1,8-naphthyridine-3-carboxamide] | – | –
18 | 74 | – | 30 | – | – | 100 | CC[C@@H](NC(=O)c1cn(-c2ccc(F)cc2F)c2nc(N3C[C@@H](O)[C@H](O)C3)ccc2c1=O)C(F)(F)F [Example 646, 1-(2,4-Difluorophenyl)-7-[(3R,4R)-3,4-dihydroxypyrrolidin-1-yl]-4-oxo-N-[(2R)-1,1,1-trifluorobutan-2-yl]-1,4-dihydro-1,8-naphthyridine-3-carboxamide] | – | –
19 | 81 | – | 49 | – | – | 96.5 | CC[C@@H](NC(=O)c1cn(-c2c(F)cccc2F)c2nc(N3C[C@@H](O)[C@@H](O)C3)ccc2c1=O)C(F)(F)F [Example 648, 1-(2,6-Difluorophenyl)-7-[(3R,4S)-3,4-dihydroxypyrrolidin-1-yl]-4-oxo-N-[(2R)-1,1,1-trifluorobutan-2-yl]-1,4-dihydro-1,8-naphthyridine-3-carboxamide] | – | –
20 | 22 | – | 60 | – | – | 100 | COC(=O)[C@@H]1CN(c2ccc3c(=O)c(C(=O)N[C@@H](C4CC4)C(F)(F)F)cn(-c4c(F)cc(F)cc4F)c3n2)C(=O)O1 [Example 666, Methyl (5S)-3-[6-{[(1S)-1-cyclopropyl-2,2,2-trifluoroethyl]carbamoyl}-5-oxo-8-(2,4,6-trifluorophenyl)-5,8-dihydro-1,8-naphthyridin-2-yl]-2-oxo-1,3-oxazolidine-5-carboxylate] | – | –
